{"source": "patent US20210115106A1", "about": "“MODIFIED T CELL RECEPTORS” (JANUX THERAPEUTICS, INC., priority 2017, published 2021)", "key": {"[1]": {"test_system": "TCR-1", "assay": "Secondary pMHC phagemid competition ELISA on TCR-1", "assay_type": "binding", "conditions": "for Secondary pMHC phagemid competition ELISA binding with 200 nM pMHC competitor / Secondary pMHC phagemid competition ELISA IC-3 binding no pMHC competitor: ELISA signal; for Secondary pMHC phagemid competition ELISA binding with 200 nM pMHC competitor: 200 nM Human MAGE-A3 pMHC competitor; for % binding with pMHC competition: TCR-1, 200 nM pMHC competitor relative to no competitor"}, "[2]": {"target": "T1, Neutravidin (Gallus gallus, UniProt P02701)", "assay": "Primary phagemid binding ELISA, Neutravidin control wells (TCR-1 panning)", "conditions": "ELISA signal; Neutravidin alone"}, "[3]": {"test_system": "TCR-1", "assay": "Primary phagemid binding ELISA, TCR-1 wells", "conditions": "ELISA signal; phagemid supernatant on Neutravidin captured biotin-conjugated TCR-1"}, "[4]": {"test_system": "TCR-8", "assay": "Primary phagemid binding ELISA, TCR-8 wells", "conditions": "ELISA signal; phagemid supernatant on Neutravidin captured biotin-conjugated TCR-8"}, "[5]": {"target": "T1, Neutravidin", "assay": "Primary phagemid binding ELISA, Neutravidin control wells (TCR-8 panning)", "conditions": "ELISA signal; Neutravidin alone", "method": "The next day the deep well plates were centrifuged to separate the soluble phagemid from the E. coli cells. The phagemid containing supernatants were then combined with PBS-Tween 20 (0.05%)+BSA (1%) blocking buffer and incubated in ELISA wells containing Neutravidin captured biotin-conjugated TCR-8 (Table 1) or Neutravidin alone. After binding at 4 degrees the plates were washed and specifically bound phage were detected by anti-m13 HRP conjugated antibodies using standard TMB-based chromogenic ELISA procedures. Daughter plates or individual wells were subjected to standard DNA sequencing for clonal peptide sequence identification."}, "[6]": {"test_system": "TCR-8", "assay": "Secondary pMHC phagemid competition ELISA on TCR-8", "assay_type": "binding"}, "[7]": {"test_system": "TCR-1, TCR-8, TCR-9, TCR-10", "assay": "BLI binding specificity of Peptide-5 against TCR-1 and closely related TCRs", "conditions": "TCRs from 50 nM or at 100 uM on saturating Peptide-5", "method": "The other TCRS chosen are closely related to the target TCR-1. BLI based kinetic binding of TCR-land closely related TCRS, TCR-8, TCR-9, and TCR-10 to inhibitory peptides was measured using a ForteBio Octet RED96 instrument. Biotinylated peptides were first captured on streptavidin biosensors. Sensors were quenched using excess biocytin and then baselined in buffer. TCRs were titrated in a 2-fold dilution series starting from 50 nM and were associated onto the inhibitory peptide loaded biosensor. Association signal was monitored in real-time. Biosensors were then transferred to buffer and the dissociation of TCR was measured in real-time. Response data was baseline corrected and fit to a 1:1 binding model used to calculate association and dissociation rates.\nBLI based kinetic binding of TCR-land closely related TCRS, TCR-8, TCR-9, and TCR-10 to inhibitory peptides was measured using a ForteBio Octet RED96 instrument. Biotinylated peptides were first captured on streptavidin biosensors until signal saturation. Sensors were quenched using excess biocytin and then baselined in buffer. TCRs were associated 100 uM onto the inhibitory peptide loaded biosensor. Association signal was monitored in real-time. Biosensors were then transferred to buffer and the dissociation of TCR was measured in real-time. […]"}, "[8]": {"target": "TCR-1 binding to MAGE-A3 pMHC", "assay": "Peptide inhibition of TCR-1 kinetic binding to MAGE-A3 pMHC (BLI)", "conditions": "50 nM TCR-1; result in words", "method": "Zero concentration of inhibitory peptide (100% binding) or zero concentration of TCR (0% binding) was used as a control. Biotinylated pMHC was captured on streptavidin biosensors. Sensors were quenched using excess biocytin and then baselined in buffer. Inhibitory peptide and TCR mixtures were associated onto the pMHC loaded biosensor. Association signal was monitored in real-time. Biosensors were then transferred to buffer and the dissociation signal was measured in real-time.\nZero concentration of inhibitory peptide (100% binding) or zero concentration of TCR (0% binding) was used as a control. Biotinylated pMHC was captured on streptavidin biosensors. Sensors were quenched using excess biocytin and then baselined in buffer. […] Association signal was monitored in real-time. Biosensors were then transferred to buffer and the dissociation signal was measured in real-time. Data was baseline corrected. The maximal association signal was normalized from 100% (0 uM inhibitory peptide control) to 0% (0 uM TCR control) and plotted versus log-scale inhibitory peptide concentration. […]\nInhibitory peptide titrated in a 2-fold dilution series starting from 100 uM was first incubated with a constant concentration of 50 nM TCR. […] Association signal was monitored in real-time. Biosensors were then transferred to buffer and the dissociation signal was measured in real-time. […]"}, "[9]": {"target": "TCR-1", "assay": "ELISA-based binding of TCR-1 to synthetic peptides", "conditions": "result in words; numbers are in Table 3, not printed here", "method": "(§1) ELISA-based binding: High binding plates were first coated with neutravidin. Neutravidin coated plates were blocked using bovine serum albumin in buffer and washed. Biotinylated peptide or pMHC at a single concentration of 100 nM was captured on neutravidin coated plates, quenched using excess biocytin, and washed. […] TCR was then titrated onto the peptide or pMHC captured plates for 1 hour and washed. […] Plates were then developed using tetramethylbenzidine (TMB) for 5-10 min and stopped using acid.\nas §1, with “High” for “ELISA-based binding: High”, “peptide” for “peptide or pMHC”, “acid. Absorbance at 450 nm was measured for each plate and plotted versus log-scale TCR concentration. […]” for “acid.”\nHigh binding plates were first coated with neutravidin. Neutravidin coated plates were blocked using bovine serum albumin in buffer and washed. […] Absorbance at 450 nm was measured for each plate and plotted versus log-scale TCR concentration."}, "[10]": {"target": "TCR-1 binding to MAGE-A3 pMHC", "assay": "Peptide inhibition of TCR-1 binding to MAGE-A3 pMHC in competitive binding ELISA", "conditions": "1 nM TCR-1, result in words", "method": "(§2) Peptide inhibition in competitive binding ELISAs: High binding plates were first coated with neutravidin. Neutravidin coated plates were blocked using bovine serum albumin in buffer and washed. Biotinylated pMHC at a single concentration of 100 nM was captured on neutravidin coated plates, quenched using excess biocytin, and washed. […] Inhibitory peptide and TCR mixtures were then added to the pMHC captured plates for 30 min and washed. […] Plates were then developed using tetramethylbenzidine (TMB) for 5-10 min and stopped using acid.\nas §2, with “High” for “Peptide inhibition in competitive binding ELISAs: High”, “acid. Absorbance at 450 nm was measured for each plate and plotted versus log-scale inhibitory peptide concentration.” for “acid.”\nHigh binding plates were first coated with neutravidin. Neutravidin coated plates were blocked using bovine serum albumin in buffer and washed. […] Absorbance at 450 nm was measured for each plate and plotted versus log-scale inhibitory peptide concentration."}, "[11]": {"target": "T1, Neutravidin", "assay": "primary phagemid binding ELISA, Neutravidin alone"}}, "note": "Ends that are not written are not given here.", "data": [{"molecule": "GGDVRCFMRMMECVLL [J289_D10]", "values": [{"measurement": "Secondary pMHC phagemid competition ELISA binding with 200 nM pMHC competitor", "setting": "[1]", "result": 0.132}, {"measurement": "Secondary pMHC phagemid competition ELISA IC-3 binding no pMHC competitor", "setting": "[1]", "result": 1.881}, {"measurement": "% binding with pMHC competition", "setting": "[1]", "result": 7, "unit": "%"}, {"measurement": "Primary Phagemid binding ELISA Neutravidin control wells", "setting": "[2]", "result": 0.120}]}, {"molecule": "GGLADYCEHPMCYWYS [J250_G02]", "values": [{"measurement": "Primary Phagemid binding ELISA Neutravidin control wells", "setting": "[2]", "result": 0.152}, {"measurement": "Primary Phagemid binding ELISA TCR-1 wells", "setting": "[3]", "result": 3.122}]}, {"molecule": "GGLADYCEHPMCYWYS [J272_B10]", "values": [{"measurement": "Secondary pMHC phagemid competition ELISA binding with 200 nM pMHC competitor", "setting": "[1]", "result": 0.075}, {"measurement": "Secondary pMHC phagemid competition ELISA IC-3 binding no pMHC competitor", "setting": "[1]", "result": 1.683}, {"measurement": "% binding with pMHC competition", "setting": "[1]", "result": 4, "unit": "%"}, {"measurement": "Primary Phagemid binding ELISA Neutravidin control wells", "setting": "[2]", "result": 0.068}]}, {"molecule": "GGVICENWQGDRVCWF [J308_A03] (phagemid-displayed)", "values": [{"measurement": "Primary phagemid binding ELISA TCR-8 wells", "setting": "[4]", "result": 3.157}, {"measurement": "Primary phagemid binding ELISA Netravidin Control wells", "setting": "[5]", "result": 0.132}]}, {"molecule": "GGVICENWQGDRVCWF [J308_A09] (phagemid-displayed)", "values": [{"measurement": "Primary phagemid binding ELISA TCR-8 wells", "setting": "[4]", "result": 3.065}, {"measurement": "Primary phagemid binding ELISA Netravidin Control wells", "setting": "[5]", "result": 0.236}, {"measurement": "Secondary pMHC phagemid competition ELISA binding with 100 nM pMHC tetramer competitor", "setting": "[6]; ELISA signal, 100 nM tetrameric human MAGE-A3 pMHC", "result": 0.570}, {"measurement": "Secondary pMHC phagemid competition ELISA TCR-8 binding no pMHC competitor", "setting": "[6]; ELISA signal, no pMHC competitor", "result": 1.877}, {"measurement": "% binding with pMHC competition", "setting": "[6]; TCR-8, 100 nM pMHC tetramer competitor relative to no competitor", "result": 30, "unit": "%"}]}, {"molecule": "GGVSCKDVYDEAFCWT [Peptide-5, synthesized with a biotinylated linker and C-terminal amidation]", "values": [{"measurement": "binding specificity for TCR-1 against closely related TCRs", "setting": "[7]", "result": "selective for TCR-1"}, {"measurement": "IC50, inhibition of TCR-1 binding to MAGE-A3 pMHC", "setting": "[8]", "result": "lowest"}]}, {"molecule": "Peptide-24: Peptide-5 alanine scan peptide, substitution of lysine at the 6th amino acid position (GGVSCADVYDEAFCWT-NH2; not fully specified; cysteine pairing not given here; also: biotinylated linker, place not given here)", "values": [{"measurement": "binding EC50 (TCR-1 binding to peptide by ELISA)", "setting": "[9]", "result": "mild improvements"}, {"measurement": "competitive binding IC50", "setting": "[10]", "result": "mild improvement"}]}, {"molecule": "GGDVRCFMRMMECVLL", "note": "[J289_D10]", "values": [{"measurement": "ELISA signal (Neutravidin control wells)", "setting": "[11]", "result": 0.12}]}]}
